Consider 16 compounds from patent publication US5830903A, “Triazole substituted quinoline derivatives for gastrointestinal treat-treatment” (Alkaloida Chemical Co., Ltd., priority 1993, dated 1998).

Data set [1] concerns alcohol induced increase of gastric glandular capillary permeability. Kind of data set: Alcohol induced increase of gastric glandular capillary permeability. Format: in vivo, rats. The conditions noted are these: 100% ethanol alone. On the procedure:
After 13 minutes 1 ml of 100% ethanol was added perorally and after further 2 minutes the stomachs were removed and their weights measured. […]

In data set [2] the test system is lesions caused by intomethacin. Kind of data set: Indomethacin-induced gastric lesions. Format: in vivo, female OFA-rats. The following applies: Rattus norvegicus, po, 6 h, read-out: ED50 mg/kg (p.o.). On the procedure: The compounds were administered in a volume of 0.5 ml/100 g in a suspension prepared in water with 2-4% Tween-80. After 6 hours the animals were over-anesthesized and their stomachs were opened along the greater curvature. The preparations were investigated by stereomicroscopy using an 8-fold enlargement. The number, size and incidence of erosions and ulcers was noted and compared with the control group treated with the carrier only.
The size of the ulcers was determined on the basis of the following score:
1: ulcer or erosion of the size of 1-2 mm;
2: ulcer or erosion of the size of 2-3 mm;
3: ulcer or erosion of the size of 3-4 mm;
4: ulcer longer than 4 mm;
5: ulcer longer and broader than 4 mm.
The ED50 values were calculated on the basis of ulcer-indexes:
ulcer index=/severeity of lesion x number of lesions/number of animals /n/

In data set [3] the test system is lesions induced with hydrochloric acid and ethanol. Kind of data set: Gastric haemorrhages induced by hydrochloric acid in ethanol (cytoprotection). The conditions noted are these: for average length of haemmorrhages, change in %: treated vs control; for protection against hydrochloric acid/ethanol lesions (in words): 100 mg/kg. Format: in vivo, female rats. The method, then: The volume of treatment was 0.5 ml/100 g. […] The average degree of haemorrhages of the treated groups was compared to the control groups treated with the vehicle only. Number of animals was 6-18 in each group.

Data set [4] concerns ulcers induced by reserpine. Kind of data set: Reserpine induced ulcers. Type of data set: in vivo, female OFA rats. The following applies: 40 mg/kg p.o.; reserpine 5 mg/kg s.c.; 18 h. The method, then: Female OFA rats of 130-160 g weight, starved for 24 hours, were treated at the same time perorally with 40 mg/kg doses of the substances to be tested and with 5 mg/kg s.c. doses of reserpine. After 18 hours the animals were over-anesthesized and the removed stomachs were investigated under stereomicroscope using a 8-fold enlargement. The number of ulcers was counted and their size was evaluated using 0-0.5-1-2-4-8-16-32 scores. The number of animals was 5 for each dose.

Data set [5] relates to stress ulcer caused by immersion. Kind of data set: Stress ulcer caused by immersion. Format: in vivo, Wistar rats. The conditions noted are these: for erosion inhibition % / erosion ulcus-index mm / hyperemia inhibition % / hyperemia ulcer-index mm: n = 7. The method, then:
30 minutes after peroral treatment with the test substance, […]. After seven hours the glandular lesions appearing in the stomach were evaluated according to the score described in Example I.1.

The subject of data set [6] is histamine stimulated hydrochlorid acid secretion. Kind of data set: Histamine stimulated gastric acid secretion in Shay rats. Type of data set: in vivo. The conditions noted are these: histamine alone 10 mg/kg s.c. On the procedure:
The test substances were added on the course of operation intra-duodenally. Immediately after operation each rat obtained 0.50 ml s.c. of a physiological salt solution for hydration. After 4 hours the rats were over-anesthesized, the stomach liquid was collected, centrifugated and the volume determined. […] Measurement of stimulated secretion of gastric acid was also carried out according to the above method.

Data set [7] has as its system lesions caused by the NSAID naproxen. Kind of data set: Naproxen-induced gastric erosions, test substance 1 hour after naproxen. Format: in vivo, WISTAR rats. The conditions noted are these: naproxen alone 75 mg/kg po., n = 7. On the procedure:
(§1) Administration of the test substances followed 1 hour after injection. After 4 hours the animals were over-anesthesized with ether and the changes (erosions) were evaluated as in Example I.1. The size of the lesions was characterized by way of the ulcer index.

Data set [8] has as its system lesions caused by the NSAID piroxicam. Kind of data set: Piroxicam-induced gastric erosions, test substance 1 hour after piroxicam. Format: in vivo, WISTAR rats. The following applies: piroxicam alone 60 mg/kg po., n = 7. The method, then:
as §1

[9] abbreviates: 60 min before 20 mg/kg indomethacin, from ulcer index, confidence limits 95%.
Where [10] appears, read: 20.0 mg/kg p.o., control 61.3 ± 9.8 (substance 6, n = 6), 80.4 ± 8.2 (substance 11, n = 12).

Read-outs that look alike come from different tables or passages of the source. Marks after values point to notes of the source that are not given here.

Take `CCO` [100% ethanol, reference compound]: in data set [1], the “Evans-blue” value is 9.45 ± 0.94 µg/g and the “stomach” value was determined as 1.1 ± 0.15 g.

With `Clc1ccc2c(-n3cncn3)ccnc2c1` [Substance 2, 4-(1H-1,2,4-triazole-1-yl)-7-chloro-quinoline], the ED50 in data set [2] (setting [9]) stood at 53 mg/kg.

For the compound `Cc1ccc2c(-n3cncn3)ccnc2c1` [Substance 3, 4-(1H-1,2,4-triazole-1-yl)-7-methyl-quinoline], the ED50 in data set [2] (setting [9]) amounted to 74 mg/kg.

Turning to `Cc1cc(-n2cncn2)c2ccccc2n1` [Substance 4, 2-methyl-4-(1H-1,2,4-triazole-1-yl)-quinoline], the ED50 in data set [2] (setting [9]) is 44 mg/kg.

With `c1ccc2nc(-n3cncn3)ccc2c1` [Substance 5, 2-(1H-1,2,4-triazole-1-yl)-quinoline], the ED50 in data set [2] (setting [9]) is 38 mg/kg.

`Cc1cc2ccccc2nc1-n1cncn1` [Substance 6, 2-(1H-1,2,4-triazole-1-yl)-3-methyl-quinoline]: the ED50 in data set [2] (setting [9]) was found to be 29 mg/kg. For the same compound, the “average length of haemmorrhages, treated” value in data set [3] (setting [10]) came out at 48.0 ± 10.3 mm. Moreover, the “average length of haemmorrhages, change in %” value (“average length … change in %” below) in data set [3] (20.0 mg/kg p.o.) is listed as -22%. Besides, in data set [4], the “number of ulcers, %change compared with control” value is “+17%”; the “severity of ulcers, %change compared with control” value is -5%; the ulcers per treated is 5/5.

`Cc1cc2ccc(Br)cc2nc1-n1cncn1` [Substance 7, 2-(1H-1,2,4-triazole-1-yl)-3-methyl-7-bromo-quinoline]: the ED50 in data set [2] (setting [9]) was determined as 34 mg/kg.

For `CCc1ccc2cc(C)c(-n3cncn3)nc2c1` [Substance 8, 2-(1H-1,2,4-triazole-1-yl)-3-methyl-7-ethyl-quinoline], the ED50 in data set [2] (setting [9]) turned out to be 40 mg/kg.

On to `Cc1cc(Sc2nc[nH]n2)c2ccccc2n1` [Substance 9, 2-methyl-4-(1H-1,2,4-triazole-3-yl-thio)-quinoline], for which the ED50 in data set [2] (setting [9]) was 47 mg/kg.

`CCc1nc(Sc2cc(C)nc3cc(C)cc(C)c23)n[nH]1` [Substance 10, 2,5,7-trimethyl-4-(5-ethyl-1H-1,2,4-triazole-3-yl-thio)-quinoline]: the ED50 in data set [2] (setting [9]) worked out at 74 mg/kg.

With `Cc1cc2ccccc2nc1Sc1nc[nH]n1` [Substance 11, 2-(1H-1,2,4-triazole-3-yl-thio)-3-methyl-quinoline], the ED50 in data set [2] (setting [9]) is 14 mg/kg. Besides, the “average length of haemmorrhages, treated” value in data set [3] (setting [10]) was found to be 51.8 ± 10.0 mm. The “average length … change in %” value in data set [3] (20.0 mg/kg p.o.) is -36%. In addition, in data set [4], the “number of ulcers, %change compared with control” value is on record as “+67%”; the “severity of ulcers, %change compared with control” value was “+37%”; the ulcers per treated is given as 5/5.

In the case of `CCc1nc(Sc2nc3ccccc3cc2C)n[nH]1` [Substance 12, 2-(5-ethyl-1H-1,2,4-triazole-3-yl-thio)-3-methyl-quinoline], in data set [2] (setting [9]), the ED50 came to 74 mg/kg.

With `CN/C(=N/CCSCc1nc[nH]c1C)NC#N` [cimetidine, reference compound], the ED50 in data set [2] was 96 mg/kg. Also, the “protection against hydrochloric acid/ethanol lesions (in words)” value in data set [3] is “practically ineffective”. The “protection against hydrochloric acid/ethanol lesions (in words)” value in data set [3] (listed as Cimetidin) was “practically inactive”. Moreover, in data set [3] (300 mg/kg p.o., n = 16, control 74.8 ± 6.4), the “average length of haemmorrhages, treated” value was 64.2 ± 12.3 mm. For the same compound, in data set [3] (300 mg/kg p.o.), the “average length … change in %” value is listed as -24%. In data set [5] (100 mg/kg p.o.), this compound came in with an erosion inhibition % of 34%, an erosion ulcus-index mm of 24.4 ± 10.0 mm, a hyperemia inhibition % of 21% and a hyperemia ulcer-index mm of 58.1 ± 10.4 mm. In data set [5] (200 mg/kg p.o.), this compound showed an erosion inhibition % of 50%, an erosion ulcus-index mm of 18.2 ± 11.2 mm, a hyperemia inhibition % of 39% and a hyperemia ulcer-index mm of 48.2 ± 14.6 mm. Moreover, the “inhibition of hyperemia and erosion (in words)” value in data set [5] (substance 1 at 50 mg/kg p.o., cimetidine) was “no significant inhibition”.

As for `NCCc1c[nH]cn1` [histamine, reference compound], in data set [6], the “acid secretion μEqu/4^h” value was 1477 ± 80 μEqu/4^h, the “acidity μEqu/ml” value is 237 ± 18 μEqu/ml and the “volume/4^h” value is 6.3 ± 0.7 mL.

Take `COc1ccc2cc([C@H](C)C(=O)O)ccc2c1` [naproxen, reference compound]: in data set [7], the “ulcus index ± SEM” value is given as 25.2 ± 6.1.

Take `CN1C(C(=O)Nc2ccccn2)=C(O)c2ccccc2S1(=O)=O` [piroxicam, reference compound]: in data set [8], the “ulcus index ± SEM” value turned out to be 23.3 ± 6.4.
